Assay results reported in PubChem BioAssay (NCI).
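A five-concentration, 48-hour dose response in 96-well plates underlies each endpoint, interpolated linearly between surrounding concentrations. Abbreviation: GI50, concentration required for 50% inhibition of growth. TGI: concentration producing complete growth inhibition.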

Legend:
Test in all cases: NCI tumour cell line growth inhibition, 48 h
EKVX NSCLC = test system: EKVX NSCLC
LOX IMVI melanoma = test system: LOX IMVI melanoma
SF-295 CNS = test system: SF-295 CNS
NCI-H23 lung = test system: NCI-H23 lung
MDA-MB-468 breast = test system: MDA-MB-468 breast
TK-10 renal = test system: TK-10 renal
IGROV1 ovarian = test system: IGROV1 ovarian
OVCAR-8 ovarian = test system: OVCAR-8 ovarian
M14 melanoma = test system: M14 melanoma
T-47D breast = test system: T-47D breast
SN12C renal = test system: SN12C renal
U251 CNS = test system: U251 CNS
SF-539 CNS = test system: SF-539 CNS
K-562 leukemia = test system: K-562 leukemia
SR leukemia = test system: SR leukemia
HS 578T breast = test system: HS 578T breast
MDA-MB-231 breast = test system: MDA-MB-231 breast
OVCAR-5 ovarian = test system: OVCAR-5 ovarian
786-0 renal = test system: 786-0 renal
HCT-116 colon = test system: HCT-116 colon
SK-OV-3 ovarian = test system: SK-OV-3 ovarian
SK-MEL-28 melanoma = test system: SK-MEL-28 melanoma
A549 NSCLC = test system: A549 NSCLC
ACHN renal = test system: ACHN renal
OVCAR-4 ovarian = test system: OVCAR-4 ovarian
SK-MEL-5 melanoma = test system: SK-MEL-5 melanoma
PC-3 prostate = test system: PC-3 prostate
HT29 colon = test system: HT29 colon
BT-549 breast = test system: BT-549 breast

O=C(c1ccc(O)cc1)C1[C@H](c2ccc(Br)cc2)[C@@H](c2ccccc2)NC12C(=O)Nc1ccccc12 (stereo partly drawn)
GI50 (EKVX NSCLC): 5.92 µM
TGI (EKVX NSCLC): 14 µM
GI50 (LOX IMVI melanoma): 4.93 µM
TGI (LOX IMVI melanoma): 10.6 µM
GI50 (SF-295 CNS): 5.93 µM
TGI (SF-295 CNS): 11.3 µM
GI50 (NCI-H23 lung): 6.38 µM
TGI (NCI-H23 lung): 12.6 µM
GI50 (MDA-MB-468 breast): 6.1 µM
TGI (MDA-MB-468 breast): 12.2 µM
GI50 (TK-10 renal): 5.68 µM
TGI (TK-10 renal): 11.3 µM
GI50 (IGROV1 ovarian): 5.21 µM
TGI (IGROV1 ovarian): 10.4 µM
GI50 (OVCAR-8 ovarian): 6.28 µM
TGI (OVCAR-8 ovarian): 12.2 µM
GI50 (M14 melanoma): 5.63 µM
TGI (M14 melanoma): 11.3 µM
GI50 (T-47D breast): 5.14 µM
TGI (T-47D breast): 12.2 µM
GI50 (SN12C renal): 5.69 µM
TGI (SN12C renal): 10.8 µM
GI50 (U251 CNS): 6.19 µM
TGI (U251 CNS): 11.6 µM
GI50 (SF-539 CNS): 6.41 µM
TGI (SF-539 CNS): 11.7 µM
GI50 (K-562 leukemia): 8.24 µM
TGI (K-562 leukemia): 21.8 µM
GI50 (SR leukemia): 5.18 µM
TGI (SR leukemia): 12.6 µM
GI50 (HS 578T breast): 6.63 µM
TGI (HS 578T breast): 15.9 µM
GI50 (MDA-MB-231 breast): 4.93 µM
TGI (MDA-MB-231 breast): 9.87 µM
GI50 (OVCAR-5 ovarian): 5.67 µM
TGI (OVCAR-5 ovarian): 10.8 µM
GI50 (786-0 renal): 5.83 µM
TGI (786-0 renal): 11.2 µM
GI50 (HCT-116 colon): 5.51 µM
TGI (HCT-116 colon): 10.8 µM
GI50 (SK-OV-3 ovarian): 6.67 µM
TGI (SK-OV-3 ovarian): 13.3 µM
GI50 (SK-MEL-28 melanoma): 6.21 µM
TGI (SK-MEL-28 melanoma): 11.5 µM
GI50 (A549 NSCLC): 4.84 µM
TGI (A549 NSCLC): 10.2 µM
GI50 (ACHN renal): 5.69 µM
TGI (ACHN renal): 10.8 µM
GI50 (OVCAR-4 ovarian): 6.21 µM
TGI (OVCAR-4 ovarian): 12.9 µM
GI50 (SK-MEL-5 melanoma): 6.6 µM
TGI (SK-MEL-5 melanoma): 12.1 µM
GI50 (PC-3 prostate): 5.09 µM
TGI (PC-3 prostate): 12.3 µM
GI50 (HT29 colon): 5.87 µM
TGI (HT29 colon): 12 µM
GI50 (BT-549 breast): 6.02 µM
TGI (BT-549 breast): 11.4 µM
